We go through 4 compounds from patent US20240132457A1, “3-(2-(BENZO[D]THIAZOL-2-YL)-2-(PHENYLSUFONAMIDO)ETHYL)BENZIMIDAMIDE DERIVATIVES AND RELATED COMPOUNDS AS TMPRSS2 INHIBITORS FOR THE TREATMENT OF VIRAL INFECTIONS” (INTEGERBIO, INC., priority 2020, published 2024).

Molecules are shown by their SMILES. pIC50: −log10 of the molar value.

Holding throughout (format): biochemical
For one assay, the target named is T1, Kallikrein 14 (Homo sapiens, UniProt Q9P0G3).
T1 sequence (Q9P0G3 25-251): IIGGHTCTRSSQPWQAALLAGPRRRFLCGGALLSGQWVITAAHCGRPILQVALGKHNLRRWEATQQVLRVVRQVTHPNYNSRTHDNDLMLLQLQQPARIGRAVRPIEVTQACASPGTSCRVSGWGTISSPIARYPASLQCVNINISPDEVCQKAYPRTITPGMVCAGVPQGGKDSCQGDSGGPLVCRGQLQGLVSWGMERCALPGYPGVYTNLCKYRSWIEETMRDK
Description: Non-TMPRSS2 protease panel: Kallikrein 14. The note with it: 10-dose, 3-fold from 10 μM. The method, then:
(§1) Biochemical activity of compound 1 (racemic mixture, batch 1), compound 3 (racemic), compound 11, and compound 2 (enantiomer 1, batch 1) in proteases indicated in Table 21, Table 22, Table 23, and Table 24, respectively, were measured by testing the compounds in a 10-dose IC50 with a 3-fold series dilution starting at 10 μM against the proteases. The protease activities were monitored as a time-course measurement of the increase in fluorescence signal from fluorescently-labeled peptide substrate, and initial linear portion of slope (signal/min) was analyzed. The curve fits were performed when the activities at the highest concentration of compounds were less than 65%.

The target of assay [1] is T2, Recombinant human TMPRSS2 protein (106-492 aa) (Homo sapiens, UniProt O15393).
T2 construct: Human TMPRSS2-(AA 106-492)-; purchased CusaBio CSB-YP023924HU; host or cells: yeast
Briefly: TMPRSS2 Assay 1 (Example 41), fluorogenic Boc-Gln-Ala-Arg-AMC cleavage. The note with it: TMPRSS2 10 nM, substrate 25 μM, 20 min pre-incubation. The method, then: The enzyme (TMPRSS2, CusaBio cat #CSB-YP023924HU. Recombinant human TMPRSS2 protein (106-492 aa)N-terminal 6×His-tagged (“6×His” disclosed as SEQ ID NO: 4), expressed in yeast cells; MW=44.8 kDa, lyophilized from 20 mM: Tris HCl, 0.5 M NaCl, 6% Trehalose, pH 8.0, >85% purity as determined by SDS-PAGE. Uniprot: 015393; 10 nM in the reaction) and substrate (Boc-Gln-Ala-Arg-AMC; Enzo Cat #BML-P237-0005, MW=581.76 Da. 25 μM in the reaction) were prepared in Reaction Buffer (50 mM Tris-HCl pH 8, 150 mM NaCl, 0.005% Brij35, 1% DMSO). After the enzyme solution was delivered into the reaction well, the compounds in DMSO were delivered to the reaction mixture by using Acoustic Technology (Echo 550, LabCyte Inc. Sunnyvale, CA) in nanoliter range. After 20 min pre-incubation, the substrate solution was delivered into the reaction well to initiate the reaction. The enzyme activities were monitored every 5 min as a time-course measurement of the increase in fluorescence signal from fluorescently-labeled peptide substrate for 120 min. at room temperature. Data was analyzed by taking slope*(signal/time) of linear portion of measurement. The slope was calculated using Excel, and the curve fits were performed using Prism software.

For a further assay, the target named is T3, FXIa (Homo sapiens, UniProt P03951).
T3 construct: FVIIa, Fxa, FXIa, Furin
Briefly: Non-TMPRSS2 protease panel: FXIa. The note with it: 10-dose, 3-fold from 10 μM. Here is the method:
as §1

The next assay deals with T4, Matriptase 2 (Homo sapiens, UniProt Q8IU80).
T4 sequence (Q8IU80 1-811): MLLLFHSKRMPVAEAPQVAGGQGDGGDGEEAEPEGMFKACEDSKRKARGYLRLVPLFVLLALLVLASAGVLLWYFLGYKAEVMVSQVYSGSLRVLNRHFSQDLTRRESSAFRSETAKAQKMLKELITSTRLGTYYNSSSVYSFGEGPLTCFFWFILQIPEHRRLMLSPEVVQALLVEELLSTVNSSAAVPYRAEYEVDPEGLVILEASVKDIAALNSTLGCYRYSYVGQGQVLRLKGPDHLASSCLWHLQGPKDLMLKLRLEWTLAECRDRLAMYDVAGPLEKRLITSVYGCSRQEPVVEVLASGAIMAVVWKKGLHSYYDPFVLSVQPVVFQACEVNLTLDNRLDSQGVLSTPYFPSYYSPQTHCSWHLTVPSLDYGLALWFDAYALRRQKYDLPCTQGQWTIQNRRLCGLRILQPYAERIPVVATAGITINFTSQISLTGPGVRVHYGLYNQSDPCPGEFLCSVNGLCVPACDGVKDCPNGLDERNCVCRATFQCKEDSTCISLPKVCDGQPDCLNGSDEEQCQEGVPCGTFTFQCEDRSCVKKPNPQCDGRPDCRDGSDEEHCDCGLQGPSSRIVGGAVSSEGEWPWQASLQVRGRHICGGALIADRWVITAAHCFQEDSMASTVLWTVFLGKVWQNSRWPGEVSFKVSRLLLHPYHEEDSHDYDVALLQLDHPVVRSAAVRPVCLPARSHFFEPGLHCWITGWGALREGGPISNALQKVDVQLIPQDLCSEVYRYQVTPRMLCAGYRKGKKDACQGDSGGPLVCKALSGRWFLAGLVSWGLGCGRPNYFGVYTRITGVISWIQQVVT
Briefly: Non-TMPRSS2 protease panel: Matriptase 2. The note with it: 10-dose, 3-fold from 10 μM. Here is the method:
as §1

A further assay addresses T5, FXa (Homo sapiens, UniProt P00742).
T5 construct: consisting of FXa, Kallikrein 1, MMP 1
Description: Non-TMPRSS2 protease panel: FXa. The note with it: 10-dose, 3-fold from 10 μM. The method, then: as §1

For the next assay, the target named is T6, Kallikrein 13 (Homo sapiens, UniProt Q9UKR3).
T6 sequence (Q9UKR3 17-277): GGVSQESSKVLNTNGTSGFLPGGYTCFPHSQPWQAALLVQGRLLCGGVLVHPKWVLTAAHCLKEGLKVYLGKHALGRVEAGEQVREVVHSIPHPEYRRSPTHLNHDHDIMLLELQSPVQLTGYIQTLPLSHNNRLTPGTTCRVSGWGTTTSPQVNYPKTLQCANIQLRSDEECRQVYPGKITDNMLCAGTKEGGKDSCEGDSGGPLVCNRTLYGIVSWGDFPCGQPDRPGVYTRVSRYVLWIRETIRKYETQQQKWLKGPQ
Description: Non-TMPRSS2 protease panel: Kallikrein 13. The note with it: 10-dose, 3-fold from 10 μM. The method, then:
as §1

T5 sequence (P00742 235-488 limits assumed): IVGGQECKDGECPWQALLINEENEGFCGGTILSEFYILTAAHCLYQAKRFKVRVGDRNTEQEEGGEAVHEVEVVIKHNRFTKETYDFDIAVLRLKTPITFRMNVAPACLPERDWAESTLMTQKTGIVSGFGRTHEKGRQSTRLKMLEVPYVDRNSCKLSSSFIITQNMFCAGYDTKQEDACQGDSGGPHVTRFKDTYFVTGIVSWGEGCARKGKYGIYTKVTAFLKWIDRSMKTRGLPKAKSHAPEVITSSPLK
T5 sequence (P00742 41-179 partner limits assumed): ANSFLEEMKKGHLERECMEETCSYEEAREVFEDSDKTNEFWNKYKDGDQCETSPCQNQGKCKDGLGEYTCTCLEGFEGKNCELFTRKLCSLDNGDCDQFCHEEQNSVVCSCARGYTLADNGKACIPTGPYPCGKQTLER
T3 sequence (P03951 388-625 limits assumed): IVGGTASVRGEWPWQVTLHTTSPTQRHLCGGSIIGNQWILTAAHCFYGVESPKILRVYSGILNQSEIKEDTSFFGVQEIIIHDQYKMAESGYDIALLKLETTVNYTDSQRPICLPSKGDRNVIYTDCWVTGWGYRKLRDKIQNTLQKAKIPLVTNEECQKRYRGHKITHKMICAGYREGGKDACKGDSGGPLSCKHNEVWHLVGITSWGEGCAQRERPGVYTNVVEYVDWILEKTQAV
T3 sequence (P03951 19-387 partner limits assumed): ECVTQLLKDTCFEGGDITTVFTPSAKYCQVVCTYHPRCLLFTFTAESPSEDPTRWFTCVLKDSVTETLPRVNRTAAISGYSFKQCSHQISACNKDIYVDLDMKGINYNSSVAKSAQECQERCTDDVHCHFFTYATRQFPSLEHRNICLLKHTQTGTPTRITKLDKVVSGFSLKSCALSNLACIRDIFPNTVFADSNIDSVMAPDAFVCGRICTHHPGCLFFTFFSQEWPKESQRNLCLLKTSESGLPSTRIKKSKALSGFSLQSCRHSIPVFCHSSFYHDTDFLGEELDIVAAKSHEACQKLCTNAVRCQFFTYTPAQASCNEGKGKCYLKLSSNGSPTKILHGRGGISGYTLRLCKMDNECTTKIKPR
T2 sequence (O15393 106-492): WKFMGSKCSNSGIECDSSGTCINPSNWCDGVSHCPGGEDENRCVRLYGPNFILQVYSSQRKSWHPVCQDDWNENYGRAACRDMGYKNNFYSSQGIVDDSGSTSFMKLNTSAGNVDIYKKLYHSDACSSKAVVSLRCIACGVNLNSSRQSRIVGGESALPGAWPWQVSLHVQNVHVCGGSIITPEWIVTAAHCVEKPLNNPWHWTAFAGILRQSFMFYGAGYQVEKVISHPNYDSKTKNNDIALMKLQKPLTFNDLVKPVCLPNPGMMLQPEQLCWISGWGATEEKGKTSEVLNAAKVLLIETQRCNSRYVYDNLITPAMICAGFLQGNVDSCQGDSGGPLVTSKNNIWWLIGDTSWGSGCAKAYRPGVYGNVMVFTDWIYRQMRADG

The pIC50 is the negative decadic logarithm of the IC50, by convention in mol/L. Regarding `N=C(N)c1cccc(CC(NS(=O)(=O)c2cccc(-c3ccc(Cl)cc3Cl)c2)c2nc3ccccc3s2)c1` (racemic) [3 (racemic), 3-[2-(1,3-Benzothiazol-2-yl)-2-{2′,4′-dichloro-[1,1′-biphenyl]-3-sulfonamido}ethyl]benzene-1-carboximidamide], the pIC50 was < 5.00 on Kallikrein 14; > 5.00 in assay [1]; < 5.00 on FXIa (FXIa); < 5.00 against Matriptase 2; > 5.00 against FXa (FXa); < 5.00 at Kallikrein 13.

With `N=C(N)c1cccc(CC(NS(=O)(=O)c2ccccc2)c2nc3ccccc3s2)c1` (racemic) [1 (racemic mixture, batch 1), 3-[2-Benzenesulfonamido-2-(1,3-benzothiazol-2-yl)ethyl]benzene-1-carboximidamide], the negative logarithm of the IC50 (pIC50) was < 5.00 on Kallikrein 14; > 5.00 in assay [1]; < 5.00 at FXIa (FXIa); < 5.00 against Matriptase 2; < 5.00 at FXa (FXa); < 5.00 against Kallikrein 13.

As to `COc1ccc2nc(C(Cc3cccc(C(=N)N)c3)NS(=O)(=O)c3ccccc3)sc2c1` (centres unmarked) [Compound 11, 3-[2-Benzenesulfonamido-2-(6-methoxy-1,3-benzothiazol-2-yl)ethyl]benzene-1-carboximidamide], the negative-log IC50 (pIC50) against Kallikrein 14 is < 5.00; against FXIa (Factor XIa) it was < 5.00; at Matriptase 2, > 5.00; on FXa (Factor Xa), < 5.00; against Kallikrein 13, < 5.00.

Regarding `N=C(N)c1cccc(C[C@H](NS(=O)(=O)c2ccccc2)c2nnco2)c1` (single isomer, unassigned) [Compound 2 (enantiomer 1, batch 1), 3-[2-Benzenesulfonamido-2-(1,3,4-oxadiazol-2-yl)ethyl]benzene-1-carboximidamide], the pIC50 (against Kallikrein 14; in assay [1]; against FXIa (FXIa); at Matriptase 2; against FXa (FXa); at Kallikrein 13) was < 5.00 in each case.
